Where two headings read alike, the source gives them in different places.
How the values were obtained:
CDK8 = CDK8 (Homo sapiens, UniProt P49336); test: CDK8 enzyme activity assay (ADP-Glo Kinase Assay); type: biochemical; conditions: means ± SD
Description: Some of them with high inhibition rates were further measured for their IC50 values. Compound SEL-120 34 A was selected as a positive control. [table] [table] page 14: CO2 atmosphere incubator for 24 h. Then, medium with compound at the concentrations of 100, 20, 4, 0.8, 0.016 μM was added into each well for another 48 h and incubated with CCK-8 (10 μL) for 2 h at 37 °C. The absorbance value at 450 nm was measured by the microplate reader (PerkinElmer Envision). 1.4 Kinase Assay The kinase inhibition was detected by ADP-Glo™ Kinase Assay (Promega) using a black 384-well plate. The active CDK8 kinase was diluted in mixture (5 ng enzyme, 0.5 μg substrate, 50 μM DTT, 1 μL reaction buffer and added ddH2O to 3 μL each well) and the final ATP concentrations of was 50 μM. After incubation at room temperature, ADP-Glo™ solution and kinase detection reagent was added. The data was collected by the microplate reader. 1.5 Cellular thermal shift assay HCT-116 cells were cultured in cell culture dishes and treated with 5 μM compound 12 for 4 h. HCT-116 cells were collected, washed by PBS and cell suspensions were divided into 12 PCR tubes equally. Then,11 tubes were heated at 37, […] After that, cells were broken by ultr asonic treatment and centrifuged at 12000 rpm for 20 min. The supernatant was analyzed by western blot. 1.6 Biotin-pulldown assay After co-treated with 2 μM biotinylated compound and compound 12 for 12 h, HCT-116 cells were lysed with NP-40 containing PMSF and centrifuged at 14000 r for 30 min at 4 °C. Then, 40 μL supernatant was used as the input by adding 10 μL 5×SDS loading buffer, and the remains were mixed with Streptavidin Agarose (Novex, Carlsbad, CA, USA). After 6 h incuba tion at 4 °C, the beads were washed three times using lysis buffer and resuspended in 2× SDS loading buffer. HEK -293T cells overexpressed flag -tagged CDK8 were treated using above method. The samples were analyzed by western blot.

MV4-11 = test: Antiproliferative CCK-8 assay, MV4-11; type: cell-based; conditions: Homo sapiens; MV4-11, CCK-8 assay, means ± SD; read-out: GC50 (the source's name)
Description: (§1) Compounds12, 13 and 30 were selected for further cell activity assessments based on the enzymatic activity assessment results. molm-13 and MV4-11(acute myeloid lineage leukaemia cells), MGC-803 (gastric cancer cell), MDA-MB-231(breast cancer cell), A375 (melanoma cell), A549 (lung cancer cell), HCT-116, SW-480 and HT-29 (colorectal cancer cells) were selected to evaluate antitumor activity in vitro, GES-1 (gastric mucosal epithelial cell) was selected to evaluate toxicity in vitro.
(§2) CO2 atmosphere incubator for 24 h. Then, medium with compound at the concentrations of 100, 20, 4, 0.8, 0.016 μM was added into each well for another 48 h and incubated with CCK-8 (10 μL) for 2 h at 37 °C. The absorbance value at 450 nm was measured by the microplate reader (PerkinElmer Envision). […]

MGC-803 = test: Antiproliferative CCK-8 assay, MGC-803; type: cell-based; conditions: Homo sapiens; MGC-803, CCK-8 assay, means ± SD; read-out: GC50 (the source's name)
Description: as §1, §2

HT-29 = test: Antiproliferative CCK-8 assay, HT-29; type: cell-based; conditions: Homo sapiens; HT-29, CCK-8 assay, means ± SD; read-out: GC50 (the source's name)
Description: as §1, §2

CDK2 = CDK2 (Homo sapiens, UniProt P24941); test: CDKs selectivity, CDK2; type: biochemical
Description: CDK7 and CDK9 with the same transcription function and CDK2 and CDK6 were selected to evaluate the selectivity of compound 12.

STAT1 Tyr701 = test: Phosphorylation of STAT1 Tyr701, western blot; type: cell-based; conditions: HCT-116 cells, 1, 2, 4 μM, 12 h
Description: It has been reported that CDK8 could specifically target the transactivation domain of STAT1 at Ser727 phosphorylation. HCT-116 cells were treated with compounds 12 with different concentrations of 1 μM, 2 μM, 4 μM separately to verify compound 12 could inhibit the phosphorylation of STAT1 Ser727. […] It’s reported that CDK8 was also involved in S726 phosphorylation of STAT5 in AML cells.
1.7 The effect of compound on phosphorylation of STAT1 S727
HCT-116 cells were seeded into 60 mm cultural dishes at a density of 1.5×10^6 cells per dishes. After incubated for 12 h, cells were treated with DMSO or 10ng/mL IFN-γ.1 hour later, cells were treated with or without different concentrations of compound for 12 h. Cells were lysed using RIPA containing PMSF and phosphatase inhibitor cocktail A. Then cell samples were treated by western blot. Levels of total STAT1, phosphorylated STAT1 S727, Y701 and GAPDH were analyzed.
1.8 The effect of compound on phosphorylation of STAT5 S726
HL-60 cells were seeded into 60 mm cultural dishes at a density of 2×10^6 cells per dishes. […]
Levels of total STAT5, phosphorylated STAT5 S726 and GAPDH were analyzed.
The results were expressed as the means ± SEMs (SPSS software), and the differences between groups were evaluated using Turkey’s method (GraphPad Software). […]

[1] = In vivo pharmacokinetic evaluation
Description: Pharmacokinetic data is an important parameter for small molecule drugs. Here, the pharmacokinetic data of compound 12 was performed. […] Based on the above data analysis, we believed it is possible that compound 12 could be used as an oral medication (Figure 7).

CYP 2C9 = CYP 2C9 (Homo sapiens, UniProt P11712); test: CYP inhibition activity, 2C9; type: in vitro ADME
CYP 2C9, sequence (P11712 whole entry): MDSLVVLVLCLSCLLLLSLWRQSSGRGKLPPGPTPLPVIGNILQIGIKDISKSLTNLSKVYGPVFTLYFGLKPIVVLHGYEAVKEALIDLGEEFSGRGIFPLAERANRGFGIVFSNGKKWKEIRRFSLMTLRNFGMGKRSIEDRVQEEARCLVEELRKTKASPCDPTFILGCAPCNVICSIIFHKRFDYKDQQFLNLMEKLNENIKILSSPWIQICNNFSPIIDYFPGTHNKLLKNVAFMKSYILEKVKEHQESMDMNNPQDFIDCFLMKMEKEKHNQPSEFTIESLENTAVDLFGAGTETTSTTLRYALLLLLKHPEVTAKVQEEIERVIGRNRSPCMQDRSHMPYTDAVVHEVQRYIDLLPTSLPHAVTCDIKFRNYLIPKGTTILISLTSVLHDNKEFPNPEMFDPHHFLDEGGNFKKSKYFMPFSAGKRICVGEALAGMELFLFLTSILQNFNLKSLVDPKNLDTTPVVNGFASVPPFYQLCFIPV
Description: Table 7. CYP inhibition activity. | column: IC50 (μM) / 2C9

CYP 2C19 = CYP 2C19 (Homo sapiens, UniProt P33261); test: CYP inhibition activity, 2C19; type: in vitro ADME
CYP 2C19, sequence (P33261 whole entry): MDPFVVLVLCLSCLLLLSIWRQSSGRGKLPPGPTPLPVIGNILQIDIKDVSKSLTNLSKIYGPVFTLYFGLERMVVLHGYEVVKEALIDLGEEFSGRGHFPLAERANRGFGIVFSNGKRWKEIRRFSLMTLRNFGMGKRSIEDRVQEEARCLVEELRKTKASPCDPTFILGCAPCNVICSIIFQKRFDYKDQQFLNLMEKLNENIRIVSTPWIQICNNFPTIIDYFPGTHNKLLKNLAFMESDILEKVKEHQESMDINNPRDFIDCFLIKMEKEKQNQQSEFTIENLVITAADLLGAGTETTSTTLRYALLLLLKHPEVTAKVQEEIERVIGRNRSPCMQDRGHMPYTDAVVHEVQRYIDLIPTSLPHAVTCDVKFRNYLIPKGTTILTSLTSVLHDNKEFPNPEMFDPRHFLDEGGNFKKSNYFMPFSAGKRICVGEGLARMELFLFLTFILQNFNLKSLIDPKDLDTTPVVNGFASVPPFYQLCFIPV
Description: Table 7. CYP inhibition activity. | column: IC50 (μM) / 2C19

[2] = blood, iv, 2 mg/kg, 2 mg/kg (iv)
[3] = blood, po, 10 mg/kg, 10 mg/kg (po)

CDK8, sequence (P49336 whole entry): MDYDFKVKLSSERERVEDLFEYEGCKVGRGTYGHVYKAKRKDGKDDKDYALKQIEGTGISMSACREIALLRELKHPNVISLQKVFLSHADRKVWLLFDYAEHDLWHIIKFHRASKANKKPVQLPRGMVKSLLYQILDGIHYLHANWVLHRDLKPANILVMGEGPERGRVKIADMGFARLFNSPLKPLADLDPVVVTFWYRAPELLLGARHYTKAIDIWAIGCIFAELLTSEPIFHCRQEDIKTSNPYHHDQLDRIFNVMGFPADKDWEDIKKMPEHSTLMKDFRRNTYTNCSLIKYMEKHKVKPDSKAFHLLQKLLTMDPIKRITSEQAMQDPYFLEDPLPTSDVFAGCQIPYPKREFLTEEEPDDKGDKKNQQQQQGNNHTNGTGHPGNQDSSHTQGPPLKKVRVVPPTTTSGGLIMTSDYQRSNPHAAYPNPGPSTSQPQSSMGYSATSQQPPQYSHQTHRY
CDK8, sequence (P24863 whole entry partner): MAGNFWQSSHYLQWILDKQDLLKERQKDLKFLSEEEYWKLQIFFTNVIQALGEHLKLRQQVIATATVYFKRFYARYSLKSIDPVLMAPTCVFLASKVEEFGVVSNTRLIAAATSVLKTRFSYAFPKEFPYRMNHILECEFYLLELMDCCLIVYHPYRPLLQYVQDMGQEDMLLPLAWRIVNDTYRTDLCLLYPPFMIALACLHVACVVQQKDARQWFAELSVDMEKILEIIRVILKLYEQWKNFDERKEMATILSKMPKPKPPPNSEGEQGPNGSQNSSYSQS

NC(=O)c1cccc(-c2cnc3[nH]cc(-c4ccoc4)c3c2)c1 [Compound 12, 3-(3-(furan-3-yl)-1H-pyrrolo[2,3-b]pyridin-5-yl)benzamide]
inhibition at 0.2 µM (CDK8; CDK8, 200 nM, two experiments, read-out: Inhibition rate @ 200 nM (%)): 80.9 ± 3.5% | IC50 (CDK8; three experiments): 0.0392 ± 0.0063 µM | IC50 (MV4-11): 0.03 ± 0.01 µM | IC50 (MGC-803): 11.7 ± 1.93 µM | IC50 (HT-29): 8.26 ± 0.65 µM | IC50 (CDK2): > 1 µM | Phosphorylation of STAT1 Tyr701 (STAT1 Tyr701): not inhibited | AUC 0-∞ ([1]; 2 mg/kg (iv)): 829.75 ng·h/mL | Cmax ([1]; 2 mg/kg (iv)): 647.79 ng/mL | AUC 0-∞ ([1]; 10 mg/kg (po)): 1611.67 ng·h/mL | CL ([1]; 10 mg/kg (po)): 104 mL/min/kg | Cmax ([1]; 10 mg/kg (po)): 821.82 ng/mL | AUC(0-inf) [1, 2]: 830 ng·h/mL | half-life [1, 2]: ~1.12 h | Cmax ([1]; blood, iv, 2 mg/kg, 2 mg/kg (iv), read-out: Cmax): 648 ng/mL | AUC(0-inf) [1, 3]: 1610 ng·h/mL | half-life [1, 3]: 0.95 h | Cmax ([1]; blood, po, 10 mg/kg, 10 mg/kg (po), read-out: Cmax): 822 ng/mL | MRT ([1]; blood, 2 mg/kg (iv)): 1.64 h | Tmax ([1]; blood, 2 mg/kg (iv)): 0.33 h | clearance ([1]; blood, 2 mg/kg (iv)): 40.8 mL/min/kg | MRT ([1]; blood, 10 mg/kg (po)): 2.24 h | Tmax ([1]; blood, 10 mg/kg (po)): 0.88 h | bioavailability ([1]; blood, 10 mg/kg (po) vs 2 mg/kg (iv)): 38.8% | IC50 (CYP 2C9): > 50 µM | IC50 (CYP 2C19): > 50 µM

Reference: paper PMC10810651, “Discovery of novel and potent CDK8 inhibitors for the treatment of acute myeloid leukaemia” (Journal of Enzyme Inhibition and Medicinal Chemistry, 2024)
